Experiment [1] has as its target dopaminergic receptors D2 (Homo sapiens, UniProt P14416). Briefly: Radioligand binding assay, dopaminergic D2 receptors. Particulars: binding assay, test compound 1×10^−6 M. In a few lines:
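Values derive from competition curves: percent inhibition of control specific binding was fitted by Hill non-linear regression for IC50, and Ki calculated with Cheng–Prusoff from radioligand concentration and KD (Scatchard). Bound ligand was detected by scintillation counting.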

Experiment [2] concerns the target dopaminergic receptors D3 (Homo sapiens, UniProt P35462). Briefly: Radioligand binding assay, dopaminergic D3 receptors. Particulars: test compound 1×10^−6 M. Put shortly:
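Scintillation read-out. Specific = total − nonspecific (excess cold ligand). Data as % of control specific binding / % inhibition; IC50 by Hill fit; Ki = IC50/(1+L/KD), KD from Scatchard plot.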

The target of experiment [3] is T1, 5-HT1A receptor (rat hippocampus) (Rattus norvegicus, UniProt P19327).
T1 construct: hippocampus; from tissue; host or cells: rat hippocampus
T1 sequence (P19327 1-422): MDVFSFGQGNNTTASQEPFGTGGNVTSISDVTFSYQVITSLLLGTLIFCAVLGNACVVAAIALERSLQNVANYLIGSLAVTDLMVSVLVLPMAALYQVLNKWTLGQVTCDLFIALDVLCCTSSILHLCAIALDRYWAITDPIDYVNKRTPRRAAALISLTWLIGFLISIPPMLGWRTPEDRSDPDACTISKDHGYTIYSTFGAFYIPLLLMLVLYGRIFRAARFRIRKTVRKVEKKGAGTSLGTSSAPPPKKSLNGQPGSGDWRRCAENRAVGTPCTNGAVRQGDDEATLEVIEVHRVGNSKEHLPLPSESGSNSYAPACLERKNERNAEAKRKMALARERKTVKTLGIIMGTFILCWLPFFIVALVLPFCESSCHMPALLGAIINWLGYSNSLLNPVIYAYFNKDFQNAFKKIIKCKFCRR
Briefly: Radioligand binding assay, serotoninergic 5-HT1A receptors.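 Also: test compound at 1 µM.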 Particulars: binding assay result in %, Table 5a.

A further experiment concerns the target T2, 5-HT2A receptor (Homo sapiens, UniProt P28223).
T2 construct: purchased PerkinElmer
Put plainly: Radioligand binding assay, serotoninergic 5-HT2A receptors. Particulars: binding assay result in %, Table 5a. Put shortly:
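Competition curves from scintillation-counted specific binding (total minus binding with excess unlabelled ligand) were Hill-fitted to give IC50, converted to Ki via Cheng-Prusoff using Scatchard-derived Kd.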

For a further experiment, the target named is T3, 5-HT6 receptor (Homo sapiens, UniProt P50406).
T3 construct: purchased PerkinElmer
T3 sequence (P50406 whole entry): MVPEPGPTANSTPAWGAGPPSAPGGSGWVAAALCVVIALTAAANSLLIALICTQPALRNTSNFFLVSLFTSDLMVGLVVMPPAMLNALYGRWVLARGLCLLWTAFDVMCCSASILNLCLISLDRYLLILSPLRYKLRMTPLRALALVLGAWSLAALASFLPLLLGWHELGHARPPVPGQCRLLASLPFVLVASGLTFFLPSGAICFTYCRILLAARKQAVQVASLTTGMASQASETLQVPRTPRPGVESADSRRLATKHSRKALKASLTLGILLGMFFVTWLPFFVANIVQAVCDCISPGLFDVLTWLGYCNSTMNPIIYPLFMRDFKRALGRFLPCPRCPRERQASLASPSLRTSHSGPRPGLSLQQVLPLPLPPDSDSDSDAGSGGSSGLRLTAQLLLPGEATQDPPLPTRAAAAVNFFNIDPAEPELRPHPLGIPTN
Briefly: Radioligand binding assay, serotoninergic 5-HT6 receptors.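 Also: test compound at 1 µM.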 Particulars: binding assay result in %, Table 5a. In a few lines: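 Values are Ki from Cheng–Prusoff, taking IC50 from Hill nonlinear regression of competition curves and KD from a Scatchard plot. Specific binding was total minus binding with excess unlabelled ligand. Radioligand displacement was detected by scintillation counting, and data were also reported as percent of control specific binding.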

The target of the next experiment is T4, 5-HT7 receptor (Homo sapiens, UniProt P34969).
T4 construct: purchased PerkinElmer
T4 sequence (P34969 whole entry): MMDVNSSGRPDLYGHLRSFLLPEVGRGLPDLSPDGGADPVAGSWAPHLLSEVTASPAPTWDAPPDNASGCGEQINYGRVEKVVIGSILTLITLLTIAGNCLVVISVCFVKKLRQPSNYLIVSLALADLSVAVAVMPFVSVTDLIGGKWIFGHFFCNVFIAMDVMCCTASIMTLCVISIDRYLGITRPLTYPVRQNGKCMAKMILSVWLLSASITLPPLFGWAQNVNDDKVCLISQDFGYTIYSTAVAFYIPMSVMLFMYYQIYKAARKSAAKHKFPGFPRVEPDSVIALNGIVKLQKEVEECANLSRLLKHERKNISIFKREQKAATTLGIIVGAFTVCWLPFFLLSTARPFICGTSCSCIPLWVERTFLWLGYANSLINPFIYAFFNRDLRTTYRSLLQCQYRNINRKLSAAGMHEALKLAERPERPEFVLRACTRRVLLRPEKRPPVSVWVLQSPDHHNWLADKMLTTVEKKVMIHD
Put plainly: Radioligand binding assay, serotoninergic 5-HT7 receptors.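 Also: test compound at 1 µM.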 Particulars: binding assay result in %, Table 5a. Put shortly: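 Ki values used the Cheng–Prusoff equation, with KD from Scatchard analysis, applied to IC50 from Hill fits of human 5-HT7 radioligand competition curves. Bound radioligand was counted by scintillation, and excess unlabelled ligand set the non-specific binding.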

The subject of experiment [4] is α1 adrenergic receptors (rat cerebral cortex). Put plainly: Radioligand binding assay, adrenergic α1 receptors. Particulars: test compound 1×10^−6 M. Put shortly: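 Values derive from radioligand displacement, with non-specific binding defined by excess cold ligand and detection by scintillation. Hill-fit IC50s were converted to Ki via Cheng-Prusoff using Scatchard-derived Kd; percent inhibition of control specific binding also reported.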

The target of experiment [5] is T5, serotonin transporter (SERT) (Homo sapiens, UniProt P31645).
T5 construct: expressed in transfected cells; host or cells: CHO cells
T5 sequence (P31645 whole entry): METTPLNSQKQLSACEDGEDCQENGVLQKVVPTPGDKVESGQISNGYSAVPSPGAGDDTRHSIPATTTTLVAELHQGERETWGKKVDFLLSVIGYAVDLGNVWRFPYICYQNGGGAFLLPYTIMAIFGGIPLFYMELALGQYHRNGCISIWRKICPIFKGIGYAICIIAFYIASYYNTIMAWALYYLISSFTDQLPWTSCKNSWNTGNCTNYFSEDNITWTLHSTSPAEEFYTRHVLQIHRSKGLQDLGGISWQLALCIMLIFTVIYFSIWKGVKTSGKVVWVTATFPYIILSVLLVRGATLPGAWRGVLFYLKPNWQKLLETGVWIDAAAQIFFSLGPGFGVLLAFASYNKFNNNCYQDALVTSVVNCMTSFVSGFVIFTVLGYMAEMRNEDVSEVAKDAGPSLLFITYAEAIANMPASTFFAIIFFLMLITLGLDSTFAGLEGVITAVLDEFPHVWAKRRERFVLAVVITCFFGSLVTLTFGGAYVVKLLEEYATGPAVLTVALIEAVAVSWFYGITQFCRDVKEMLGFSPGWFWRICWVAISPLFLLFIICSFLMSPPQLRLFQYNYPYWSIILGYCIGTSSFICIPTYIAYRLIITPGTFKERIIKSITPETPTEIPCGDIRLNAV
Briefly: Radioligand binding assay, serotonin transporter (SERT). Particulars: binding assay, test compound 1×10^−6 M. In a few lines: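 Values are derived from competition curves fitted by the Hill equation to give IC50, then converted to Ki by Cheng-Prusoff with radioligand Kd from Scatchard analysis. Specific binding equals total minus non-specific (excess cold ligand), counted by scintillation, and is also expressed as percent inhibition of control.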

T2 sequence (P28223 whole entry): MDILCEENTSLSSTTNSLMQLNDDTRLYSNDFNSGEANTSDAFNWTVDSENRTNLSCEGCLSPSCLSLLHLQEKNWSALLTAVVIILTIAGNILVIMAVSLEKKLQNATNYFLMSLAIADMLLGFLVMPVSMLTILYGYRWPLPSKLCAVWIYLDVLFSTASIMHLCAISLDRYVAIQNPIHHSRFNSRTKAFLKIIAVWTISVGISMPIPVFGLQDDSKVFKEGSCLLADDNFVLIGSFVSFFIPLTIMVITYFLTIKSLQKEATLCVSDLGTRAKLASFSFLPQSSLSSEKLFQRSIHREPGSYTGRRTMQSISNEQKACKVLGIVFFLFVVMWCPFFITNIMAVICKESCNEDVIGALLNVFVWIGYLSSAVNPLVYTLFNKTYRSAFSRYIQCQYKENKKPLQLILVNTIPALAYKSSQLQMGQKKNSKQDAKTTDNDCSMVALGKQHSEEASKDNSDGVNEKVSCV
dopaminergic receptors D3, sequence (P35462 whole entry): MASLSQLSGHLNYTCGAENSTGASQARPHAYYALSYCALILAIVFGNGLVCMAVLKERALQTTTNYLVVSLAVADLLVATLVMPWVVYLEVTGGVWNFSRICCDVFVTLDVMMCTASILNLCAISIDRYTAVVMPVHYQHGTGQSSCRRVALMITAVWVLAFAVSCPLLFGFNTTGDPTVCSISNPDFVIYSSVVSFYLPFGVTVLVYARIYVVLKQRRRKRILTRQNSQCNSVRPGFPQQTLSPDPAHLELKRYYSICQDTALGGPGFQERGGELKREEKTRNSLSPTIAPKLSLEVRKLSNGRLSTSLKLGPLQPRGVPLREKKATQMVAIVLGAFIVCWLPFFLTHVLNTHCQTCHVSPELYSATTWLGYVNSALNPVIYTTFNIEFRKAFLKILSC
dopaminergic receptors D2, sequence (P14416 whole entry): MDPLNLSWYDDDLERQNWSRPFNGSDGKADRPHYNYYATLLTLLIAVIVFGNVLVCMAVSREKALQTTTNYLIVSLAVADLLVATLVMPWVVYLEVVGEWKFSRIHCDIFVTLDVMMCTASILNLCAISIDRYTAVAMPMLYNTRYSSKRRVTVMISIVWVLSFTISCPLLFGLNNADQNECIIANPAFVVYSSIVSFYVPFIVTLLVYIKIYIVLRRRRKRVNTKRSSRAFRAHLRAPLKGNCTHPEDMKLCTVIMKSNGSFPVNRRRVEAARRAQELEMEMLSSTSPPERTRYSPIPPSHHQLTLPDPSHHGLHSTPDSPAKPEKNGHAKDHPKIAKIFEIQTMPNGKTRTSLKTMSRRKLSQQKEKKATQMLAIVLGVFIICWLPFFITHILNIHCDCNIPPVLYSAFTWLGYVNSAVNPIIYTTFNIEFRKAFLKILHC

In the case of `O=C1Cc2cc(S(=O)(=O)NCC3CN(CCOc4cccc5c4OCCO5)C3)ccc2N1` [Compound 189, N-[[1-[2-(2,3-Dihydro-1,4-benzodioxin-5-yloxy)ethyl]azetidin-3-yl]methyl]-2-oxo-indoline-5-sulphonamide], the inhibition – broadly, the relative decrease from the control value, in per cent – at 1 µM in experiment [1] turned out to be 71%; in experiment [2], 61%; in experiment [3], 112%; at 5-HT2A receptor it was 74%; at 5-HT6 receptor, 46%; on 5-HT7 receptor it was 90%. Also, in experiment [5], the inhibition at 1 µM came to 41%. Further, the “α1 [%]” value in experiment [4] worked out at 71%.

For `O=S(=O)(NCC1CN(CCOc2cccc3ccccc23)C1)c1cc2ccc(Cl)cc2s1` [Compound 164, 6-Chloro-N-[[1-[2-(1-naphthyloxy)ethyl]azetidin-3-yl]methyl]-benzothiophene-2-sulphonamide], the inhibition at 1 µM in experiment [1] is 78%; in experiment [2], 98%; in experiment [3], 83%; on 5-HT2A receptor, 102%; at 5-HT6 receptor it was 94%; on 5-HT7 receptor, 92%. Besides, the inhibition at 1 µM in experiment [5] stood at 34%. The “α1 [%]” value in experiment [4] worked out at 13%.

Consider `O=S(=O)(NCC1CN(CCOc2cccc3ccccc23)C1)c1ccc(F)c(Cl)c1` [Compound 172, 3-Chloro-4-fluoro-N-[[1-[2-(1-naphthyloxy)ethyl]azetidin-3-yl]methyl]-benzenesulphonamide], for which the inhibition at 1 µM was found to be 76% in experiment [1]; 100% in experiment [2]; 85% in experiment [3]; 71% at 5-HT2A receptor; 96% on 5-HT6 receptor; 92% at 5-HT7 receptor. For the same molecule, the inhibition at 1 µM in experiment [5] came to 46%. The “α1 [%]” value in experiment [4] is on record as 40%.

For `CC1(C)Cc2cccc(OCCN3CCC(CNS(=O)(=O)c4ccc5ccccc5c4)C3)c2O1` (centres unmarked) [Compound 114, N-[[1-[2-[(2,2-Dimethyl-3H-benzofuran-7-yl)oxy]ethyl]pyrrolidin-3-yl]methyl]naphthalene-2-sulphonamide], the inhibition at 1 µM in experiment [1] came to 49%; in experiment [2], 62%; in experiment [3], 98%; on 5-HT2A receptor it was 90%; on 5-HT6 receptor, 56%; at 5-HT7 receptor, 97%. Also, the inhibition at 1 µM in experiment [5] is 5%. In experiment [4], the “α1 [%]” value came to 27%.

For `O=S(=O)(NC1CCN(CCCc2c[nH]c3ccc(Cl)cc23)C1)c1ccc(F)cc1` (centres unmarked) [Compound 83, N-[1-[3-(5-Chloro-1H-indol-3-yl)propyl]pyrrolidin-3-yl]-4-fluoro-benzenesulphonamide], the inhibition at 1 µM in experiment [1] came out at 44%; in experiment [2], 76%; in experiment [3], 104%; on 5-HT2A receptor, 82%; on 5-HT6 receptor it was 84%; at 5-HT7 receptor, 86%. Further, the inhibition at 1 µM in experiment [5] came out at 78%. For the same molecule, the “α1 [%]” value in experiment [4] was found to be 23%.

As to `O=S(=O)(NC1CCN(CCCc2noc3cc(F)ccc23)CC1)c1ccc2cc(Cl)ccc2c1` [Compound 325, 6-Chloro-N-[1-[3-(6-fluoro-1,2-benzoxazol-3-yl)propyl]-4-piperidyl]naphthalene-2-sulphonamide], the inhibition at 1 µM in experiment [1] is 91%; in experiment [2], 59%; in experiment [3], 80%; on 5-HT2A receptor it was 92%; at 5-HT6 receptor, 72%; at 5-HT7 receptor it was 89%. Moreover, the inhibition at 1 µM in experiment [5] amounted to 21%. Besides, the “α1 [%]” value in experiment [4] is listed as 76%.

Consider `O=S(=O)(NC1CCN(CCCc2noc3cc(F)ccc23)C1)c1ccc2c(c1)OCC2` (centres unmarked) [Compound 24, N-[1-[3-(6-Fluoro-1,2-benzoxazol-3-yl)propyl]pyrrolidin-3-yl]-2,3-dihydrobenzofuran-6-sulphonamide], for which the inhibition at 1 µM was 94% in experiment [1]; 52% in experiment [2]; 19% in experiment [3]; 95% on 5-HT2A receptor; 78% on 5-HT6 receptor; 82% at 5-HT7 receptor. Further, the inhibition at 1 µM in experiment [5] is -10%. The “α1 [%]” value in experiment [4] is on record as 101%.

With “N-[1-[3-(6-Fluoro-1,2-benzoxazol-3-yl)propyl]pyrrolidin-3-yl]benzene-sulphonamide [Compound 6]”, the “D2 [%]” value in experiment [1] is 70%. Moreover, in experiment [2], the “D3 [%]” value stood at 8%. In experiment [3], the “5-HT1A [%]” value was 14%. At 5-HT2A receptor, the “5-HT2A [%]” value is on record as 77%. Besides, the “5-HT6 [%]” value on 5-HT6 receptor was 44%. Also, the “5-HT7 [%]” value on 5-HT7 receptor turned out to be 83%. In experiment [4], the “α1 [%]” value turned out to be 98%. Further, the “SERT [%]” value in experiment [5] amounted to 18%.

As to `O=S(=O)(NCC1CCN(CCOc2ccc3cc[nH]c3c2)CC1)c1cccc2ccccc12` [Compound 71, N-[[1-[2-(1H-Indol-6-yloxy)ethyl]-4-piperidine]methyl]naphthalene-1-sulphonamide], in experiment [1], the “D2 [%]” value came to 27%. The “D3 [%]” value in experiment [2] is −1%. Also, in experiment [3], the “5-HT1A [%]” value is 28%. Besides, at 5-HT2A receptor, the “5-HT2A [%]” value is on record as 26%. In addition, the “5-HT6 [%]” value on 5-HT6 receptor came to 80%. Besides, the “5-HT7 [%]” value at 5-HT7 receptor was determined as 31%. Further, the “α1 [%]” value in experiment [4] amounted to 36%. In experiment [5], the “SERT [%]” value was 49%.

Turning to `O=S(=O)(NCC1CN(CCOc2cccc3c2OCCO3)C1)c1ccsc1` [Compound 191, N-[[1-[2-(2,3-Dihydro-1,4-benzodioxin-5-yloxy)ethyl]azetidin-3-yl]methyl]-thiophene-3-sulphonamide], the inhibition at 1 µM in experiment [1] was determined as 7%; in experiment [2], 25%; in experiment [3], 98%; at 5-HT2A receptor, 42%; on 5-HT6 receptor, 5%; on 5-HT7 receptor it was 93%. For the same molecule, the inhibition at 1 µM in experiment [5] amounted to 32%. Moreover, in experiment [4], the “α1 [%]” value was 54%.

For `O=S(=O)(NCC1CCN(CCOc2cccc3ccccc23)C1)c1cccc2ccccc12` (centres unmarked) [Compound 273, N-[[1-[2-(1-Naphthyloxy)ethyl]pyrrolidin-3-yl]methyl]naphthalene-1-sulphonamide], the inhibition at 1 µM amounted to 58% in experiment [1]; 90% in experiment [2]; 85% in experiment [3]; 95% at 5-HT2A receptor; 90% at 5-HT6 receptor; 77% at 5-HT7 receptor. The inhibition at 1 µM in experiment [5] amounted to 64%. Besides, the “α1 [%]” value in experiment [4] is 25%.

For the molecule `O=S(=O)(NC1CN(CCOc2cccc3c2OCCO3)C1)c1cccc(Cl)c1` [Compound 91, 3-Chloro-N-[1-[2-(2,3-dihydro-1,4-benzodioxan-8-yloxy)ethyl]azetidin-3-yl]benzenesulphonamide], the “D2 [%]” value in experiment [1] is 15%. In addition, the “D3 [%]” value in experiment [2] is −8%. Besides, in experiment [3], the “5-HT1A [%]” value is 88%. At 5-HT2A receptor, the “5-HT2A [%]” value was 47%. The “5-HT6 [%]” value on 5-HT6 receptor is given as −20%. Further, at 5-HT7 receptor, the “5-HT7 [%]” value stood at 91%. Also, in experiment [4], the “α1 [%]” value is listed as −15%. In experiment [5], the “SERT [%]” value was −4%.

Take `O=S(=O)(NC1CCN(CCCc2noc3cc(F)ccc23)C1)c1cccc(O)c1` (centres unmarked) [Compound 18, N-[1-[3-(6-Fluoro-1,2-benzoxazol-3-yl)propyl]pyrrolidin-3-yl]-3-hydroxybenzenesulphonamide]: the inhibition at 1 µM in experiment [1] was found to be 73%; in experiment [2], 31%; in experiment [3], 18%; on 5-HT2A receptor, 85%; at 5-HT6 receptor, 59%; on 5-HT7 receptor, 94%. The inhibition at 1 µM in experiment [5] came to 37%. Besides, the “α1 [%]” value in experiment [4] is on record as 98%.
